Assay results reported in US20060069132A1, “Azolecarboxamide herbicides” (priority 2004, published 2006).

Columns and labels:
cocklebur = test: Test B pre-/postemergence herbicide test; format: in vivo, Xanthium strumarium; conditions: for Cocklebur plant response rating: postemergence, visual rating
Outline: (§1)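 Visual rating, 0 (no effect) to 100 (complete control), versus untreated controls after 13–15 d in greenhouse. Pre- and postemergence applications (postemergence plants 2–18 cm, 1–4 leaves); flooded paddy arm at 2-leaf stage. Compounds in non-phytotoxic solvent plus surfactant.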

giant foxtail [1] = test: Test A pre-/postemergence herbicide test; format: in vivo, Setaria faberi
Outline: (§2)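 Visual injury rating on a 0–100 scale (0 no effect, 100 complete control) versus untreated controls, about ten days after treatment in greenhouse. Pre: directed soil spray onto seeded sandy loam. Post: spray to runoff on plants 2–10 cm tall at one- to two-leaf stage.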

barnyardgrass [2] = test: Test B flooded paddy test; format: in vivo, Echinochloa crus-galli; conditions: 1000 g ai/ha, visual rating, scale 0 to 100 (0 no effect, 100 complete control), 13 to 15 days
Outline: (§3)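 Visual ratings, 0 (no effect) to 100 (complete control), made versus controls after 13–15 d greenhouse. Paddy plants treated at 2-leaf stage; postemergence plants at 1- to 4-leaf stage, 2–18 cm tall.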

barnyardgrass [3] = test: Test A pre-/postemergence herbicide test; format: in vivo, Echinochloa crus-galli
Outline: as §2

rice = test: Test B flooded paddy test; format: in vivo, Oryza sativa; conditions: 1000 g ai/ha, visual rating, scale 0 to 100 (0 no effect, 100 complete control), 13 to 15 days
Outline: (§4)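 After treating 2-leaf paddy plants or 2–18 cm postemergence plants (1 to 4 leaves) with formulated chemical, researchers kept them in a greenhouse for 13–15 days. Effects were judged visually versus controls: 0 indicates none, 100 total control.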

wheat = test: Test B postemergence herbicide test; format: in vivo, Triticum aestivum; parameters: key to Wheat plant response rating: 0 = no effect, 100 = complete control; conditions: scale 0 (no effect) to 100 (complete control); for Wheat plant response rating: postemergence, visual rating
Outline: as §4

lambsquarters = test: Test B pre-/postemergence herbicide test; format: in vivo, Chenopodium album; conditions: for Lambsquarters plant response rating: postemergence, visual rating
Outline: (§5)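 Flooded paddy rice and barnyardgrass were treated at the 2-leaf stage; upland plantings received compound either on sown seed or on 1- to 4-leaf seedlings. All were kept 13–15 days in a greenhouse and scored visually, 0–100, relative to untreated plants.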

morningglory [4] = test: Test A pre-/postemergence herbicide test; format: in vivo, Ipomoea spp.
Outline: as §2

morningglory [5] = test: Test B pre-/postemergence herbicide test; format: in vivo, Ipomoea coccinea; conditions: for Morningglory plant response rating: postemergence, visual rating
Outline: as §1

Surinam grass = test: Test B pre-/postemergence herbicide test; format: in vivo, Urochloa decumbens; conditions: for Surinam Grass plant response rating: postemergence, visual rating
Outline: as §5

corn = test: Test B pre-/postemergence herbicide test; format: in vivo, Zea mays; conditions: for Corn plant response rating: postemergence, visual rating
Outline: as §5

velvetleaf [6] = test: Test B pre-/postemergence herbicide test; format: in vivo, Abutilon theophrasti; conditions: for Velvetleaf plant response rating: postemergence, visual rating
Outline: as §5

[7] = system: small flower umbrella sedge; test: Test B flooded paddy test; format: in vivo, Cyperus difformis; conditions: 1000 g ai/ha, visual rating, scale 0 to 100 (0 no effect, 100 complete control), 13 to 15 days
Outline: as §3

wild oat = test: Test B postemergence herbicide test; format: in vivo, Avena fatua; conditions: scale 0 (no effect) to 100 (complete control); for Oat, Wild plant response rating: postemergence, visual rating
Outline: as §4

large crabgrass [8] = test: Test A pre-/postemergence herbicide test; format: in vivo, Digitaria sanguinalis
Outline: as §2

large crabgrass [9] = test: Test B pre-/postemergence herbicide test; format: in vivo, Digitaria sanguinalis; conditions: for Crabgrass, Large plant response rating: postemergence, visual rating
Outline: as §5

redroot pigweed = test: Test A pre-/postemergence herbicide test; format: in vivo, Amaranthus retroflexus
Outline: as §2

giant foxtail [10] = test: Test B pre-/postemergence herbicide test; format: in vivo, Setaria faberi; conditions: for Foxtail, Giant plant response rating: postemergence, visual rating
Outline: as §5

ducksalad = test: Test B flooded paddy test; format: in vivo, Heteranthera limosa; conditions: 1000 g ai/ha, visual rating, scale 0 to 100 (0 no effect, 100 complete control), 13 to 15 days
Outline: as §3

blackgrass = test: Test B postemergence herbicide test; format: in vivo, Alopecurus myosuroides; conditions: scale 0 (no effect) to 100 (complete control); for Blackgrass plant response rating: postemergence, visual rating
Outline: as §3

barnyardgrass [11] = test: Test B pre-/postemergence herbicide test; format: in vivo, Echinochloa crus-galli; conditions: for Barnyardgrass plant response rating: postemergence, visual rating
Outline: as §1

velvetleaf [12] = test: Test A pre-/postemergence herbicide test; format: in vivo, Abutilon theophrasti
Outline: as §2

pigweed = test: Test B pre-/postemergence herbicide test; format: in vivo, Amaranthus retroflexus; conditions: for Pigweed plant response rating: postemergence, visual rating
Outline: as §5

[13] = 500 g ai/ha, visual rating 0-100, 0 no effect, 100 complete control, preemergence
[14] = Postemergence, 500 g ai/ha, visual rating after 13 to 15 days, scale 0 (no effect) to 100 (complete control)
[15] = 125 g ai/ha, scale 0 (no effect) to 100 (complete control)
[16] = preemergence, 125 g ai/ha, 0 to 100 scale, 0 is no effect, 100 is complete control
[17] = Postemergence, 500 g ai/ha, 0 to 100 scale, 0 no effect, 100 complete control
[18] = Postemergence, 2000 g ai/ha, 0 to 100 scale, 0 no effect, 100 complete control
[19] = Preemergence, 500 g ai/ha, visual rating, 0 to 100 scale (0 no effect, 100 complete control)
[20] = Preemergence, 2000 g ai/ha, visual rating, 0 to 100 scale (0 no effect, 100 complete control)
[21] = Postemergence, 500 g ai/ha, visual rating after 13 to 15 days
[22] = 125 g ai/ha, 0 = no effect, 100 = complete control, preemergence
[23] = 500 g ai/ha, scale 0 (no effect) to 100 (complete control)
[24] = preemergence, 500 g ai/ha, visual injury, 0 to 100 scale (0 no effect, 100 complete control)

CC(=NO)c1cccc(NC(=O)c2cc(C(C)(C)C)nn2C)c1 [Compound 107]
100: Morningglory plant response rating (morningglory [4]; [20]) | Plant response rating, Pigweed (redroot pigweed; [18])
95: Morningglory plant response rating (morningglory [4]; [19]) | Pigweed plant response rating (redroot pigweed; [17]) | Pigweed plant response rating (redroot pigweed; [20])
80: Foxtail, Giant plant response rating (giant foxtail [1]; [20])
10: Foxtail, Giant plant response rating (giant foxtail [1]; [19]) | Lambsquarters plant response rating (lambsquarters; [15]) | Plant response rating, Morningglory (morningglory [5]; [13]) | Plant response rating, Surinam Grass (Surinam grass; [13]) | Plant response rating, Surinam Grass (Surinam grass; [14]) | Surinam Grass plant response rating (Surinam grass; [15]) | Plant response rating, Crabgrass, Large (large crabgrass [9]; [13]) | Plant response rating, Pigweed (pigweed; [14])
40: Plant response rating, Morningglory (morningglory [4]; [18]) | Plant response rating, Crabgrass, Large (large crabgrass [8]; [18])
65: Crabgrass, Large plant response rating (large crabgrass [8]; [19])
0: Plant response rating, Cocklebur (cocklebur; [13]) | Plant response rating, Cocklebur (cocklebur; [14]) | Cocklebur plant response rating (cocklebur; [15]) | Plant response rating, Cocklebur (cocklebur; [16]) | Barnyardgrass plant response rating (barnyardgrass [2]) | Barnyardgrass plant response rating (barnyardgrass [3]; [19]) | Rice plant response rating (rice) | Plant response rating, Wheat (wheat; [21]) | Wheat plant response rating (wheat; 125 g ai/ha) | Plant response rating, Lambsquarters (lambsquarters; [16]) | Plant response rating, Morningglory (morningglory [5]; [14]) | Morningglory plant response rating (morningglory [5]; [15]) | Plant response rating, Morningglory (morningglory [5]; [16]) | Plant response rating, Surinam Grass (Surinam grass; [16]) | Plant response rating, Corn (corn; [13]) | Plant response rating, Corn (corn; [14]) | Corn plant response rating (corn; [15]) | Plant response rating, Corn (corn; [16]) | Plant response rating, Velvetleaf (velvetleaf [6]; [13]) | Plant response rating, Velvetleaf (velvetleaf [6]; [14]) | Velvetleaf plant response rating (velvetleaf [6]; [15]) | Plant response rating, Velvetleaf (velvetleaf [6]; [16]) | Plant response rating, Oat, Wild (wild oat; [21]) | Oat, Wild plant response rating (wild oat; 125 g ai/ha) | Plant response rating, Crabgrass, Large (large crabgrass [9]; [14]) | Crabgrass, Large plant response rating (large crabgrass [9]; [15]) | Plant response rating, Crabgrass, Large (large crabgrass [9]; [16]) | Plant response rating, Foxtail, Giant (giant foxtail [10]; [13]) | Plant response rating, Foxtail, Giant (giant foxtail [10]; [14]) | Foxtail, Giant plant response rating (giant foxtail [10]; [15]) | Plant response rating, Foxtail, Giant (giant foxtail [10]; [16]) | Plant response rating, Blackgrass (blackgrass; [21]) | Blackgrass plant response rating (blackgrass; 125 g ai/ha) | Plant response rating, Barnyardgrass (barnyardgrass [11]; [13]) | Plant response rating, Barnyardgrass (barnyardgrass [11]; [14]) | Barnyardgrass plant response rating (barnyardgrass [11]; [15]) | Plant response rating, Barnyardgrass (barnyardgrass [11]; [16]) | Velvetleaf plant response rating (velvetleaf [12]; [17]) | Plant response rating, Velvetleaf (velvetleaf [12]; [18]) | Velvetleaf plant response rating (velvetleaf [12]; [19]) | Velvetleaf plant response rating (velvetleaf [12]; [20]) | Plant response rating, Pigweed (pigweed; [13]) | Pigweed plant response rating (pigweed; [15]) | Plant response rating, Pigweed (pigweed; [16])
60: Sedge, Umbrella plant response rating [7] | Ducksalad plant response rating (ducksalad)
90: Crabgrass, Large plant response rating (large crabgrass [8]; [20])
25: Crabgrass, Large plant response rating (large crabgrass [8]; [17])
35: Plant response rating, Foxtail, Giant (giant foxtail [1]; [18]) | Barnyardgrass plant response rating (barnyardgrass [3]; [20]) | Pigweed plant response rating (redroot pigweed; [19])
30: Plant response rating, Lambsquarters (lambsquarters; [13]) | Morningglory plant response rating (morningglory [4]; [17])
20: Foxtail, Giant plant response rating (giant foxtail [1]; [17]) | Barnyardgrass plant response rating (barnyardgrass [3]; [17]) | Plant response rating, Lambsquarters (lambsquarters; [14])
55: Plant response rating, Barnyardgrass (barnyardgrass [3]; [18])

CC(=NO)c1cccc(NC(=O)c2cn(C(C)C)nc2C)c1 [Compound 180]
20: Plant response rating, Foxtail, Giant (giant foxtail [1]; [18]) | Barnyardgrass plant response rating (barnyardgrass [2]) | Barnyardgrass plant response rating (barnyardgrass [3]; [17]) | Crabgrass, Large plant response rating (large crabgrass [8]; [17]) | Ducksalad plant response rating (ducksalad)
95: Plant response rating, Pigweed (redroot pigweed; [18])
0: Cocklebur plant response rating (0 to 100 scale) (cocklebur; [22]) | Plant response rating, Cocklebur (cocklebur; [13]) | Cocklebur plant response rating (cocklebur; [15]) | Cocklebur plant response rating (cocklebur; [23]) | Foxtail, Giant plant response rating (giant foxtail [1]; [24]) | Barnyardgrass plant response rating (barnyardgrass [3]; [20]) | Barnyardgrass plant response rating (barnyardgrass [3]; [24]) | Rice plant response rating (rice) | Wheat plant response rating (wheat; 125 g ai/ha) | Wheat plant response rating (wheat; 500 g ai/ha) | Lambsquarters plant response rating (0 to 100 scale) (lambsquarters; [22]) | Plant response rating, Lambsquarters (lambsquarters; [13]) | Lambsquarters plant response rating (lambsquarters; [15]) | Lambsquarters plant response rating (lambsquarters; [23]) | Morningglory plant response rating (morningglory [4]; [24]) | Morningglory plant response rating (0 to 100 scale) (morningglory [5]; [22]) | Plant response rating, Morningglory (morningglory [5]; [13]) | Morningglory plant response rating (morningglory [5]; [15]) | Morningglory plant response rating (morningglory [5]; [23]) | Surinam Grass plant response rating (0 to 100 scale) (Surinam grass; [22]) | Plant response rating, Surinam Grass (Surinam grass; [13]) | Surinam Grass plant response rating (Surinam grass; [15]) | Surinam Grass plant response rating (Surinam grass; [23]) | Corn plant response rating (0 to 100 scale) (corn; [22]) | Plant response rating, Corn (corn; [13]) | Corn plant response rating (corn; [15]) | Corn plant response rating (corn; [23]) | Velvetleaf plant response rating (0 to 100 scale) (velvetleaf [6]; [22]) | Plant response rating, Velvetleaf (velvetleaf [6]; [13]) | Velvetleaf plant response rating (velvetleaf [6]; [15]) | Velvetleaf plant response rating (velvetleaf [6]; [23]) | Sedge, Umbrella plant response rating [7] | Oat, Wild plant response rating (wild oat; 125 g ai/ha) | Oat, Wild plant response rating (wild oat; 500 g ai/ha) | Crabgrass, Large plant response rating (0 to 100 scale) (large crabgrass [9]; [22]) | Plant response rating, Crabgrass, Large (large crabgrass [9]; [13]) | Crabgrass, Large plant response rating (large crabgrass [9]; [15]) | Crabgrass, Large plant response rating (large crabgrass [9]; [23]) | Pigweed plant response rating (redroot pigweed; [24]) | Foxtail, Giant plant response rating (0 to 100 scale) (giant foxtail [10]; [22]) | Plant response rating, Foxtail, Giant (giant foxtail [10]; [13]) | Foxtail, Giant plant response rating (giant foxtail [10]; [15]) | Foxtail, Giant plant response rating (giant foxtail [10]; [23]) | Blackgrass plant response rating (blackgrass; 125 g ai/ha) | Blackgrass plant response rating (blackgrass; 500 g ai/ha) | Barnyardgrass plant response rating (0 to 100 scale) (barnyardgrass [11]; [22]) | Plant response rating, Barnyardgrass (barnyardgrass [11]; [13]) | Barnyardgrass plant response rating (barnyardgrass [11]; [15]) | Barnyardgrass plant response rating (barnyardgrass [11]; [23]) | Velvetleaf plant response rating (velvetleaf [12]; [24]) | Pigweed plant response rating (0 to 100 scale) (pigweed; [22]) | Plant response rating, Pigweed (pigweed; [13]) | Pigweed plant response rating (pigweed; [15]) | Pigweed plant response rating (pigweed; [23])
90: Pigweed plant response rating (redroot pigweed; [20])
50: Crabgrass, Large plant response rating (large crabgrass [8]; [20])
15: Foxtail, Giant plant response rating (giant foxtail [1]; [17]) | Plant response rating, Morningglory (morningglory [4]; [18]) | Plant response rating, Velvetleaf (velvetleaf [12]; [18]) | Velvetleaf plant response rating (velvetleaf [12]; [20])
30: Plant response rating, Barnyardgrass (barnyardgrass [3]; [18]) | Pigweed plant response rating (redroot pigweed; [17])
35: Plant response rating, Crabgrass, Large (large crabgrass [8]; [18])
10: Foxtail, Giant plant response rating (giant foxtail [1]; [20]) | Morningglory plant response rating (morningglory [4]; [17]) | Morningglory plant response rating (morningglory [4]; [20]) | Crabgrass, Large plant response rating (large crabgrass [8]; [24]) | Velvetleaf plant response rating (velvetleaf [12]; [17])
